Values joined by “and” are separate entries in the source; they are usually repeats but may differ in a detail not shown here. Equal values may be shown once. Toxic doses and inconclusive results are not listed.
Tested on: BDF1 mice, P388 leukemia ip, median survival T/C
Experiment: NCI In Vivo Anticancer Drug Screen. Data for tumor model P388 Leukemia (intraperitoneal) in B6D2F1 (BDF1) mice
Settings: endpoint: median survival time, higher = longer survival
Outline: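 T/C = treated-group survival ÷ vehicle-control survival; tumour transplanted into mice before dosing.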

[1] = dose: 12.5 mg/kg/injection, schedule: Q01DX009 (ip), vehicle: saline
[2] = dose: 25.0 mg/kg/injection, schedule: Q01DX009 (ip), vehicle: saline
[3] = dose: 50.0 mg/kg/injection, schedule: Q01DX009 (ip), vehicle: saline
[4] = dose: 100.0 mg/kg/injection, schedule: Q01DX009 (ip), vehicle: saline
[5] = dose: 100.0 mg/kg/injection, schedule: Q04DX003 (ip), vehicle: saline
[6] = dose: 50.0 mg/kg/injection, schedule: Q01DX009 (ip), vehicle: saline with Tween-80
[7] = dose: 50.0 mg/kg/injection, schedule: Q04DX003 (ip), vehicle: saline with Tween-80
[8] = dose: 100.0 mg/kg/injection, schedule: Q04DX003 (ip), vehicle: saline with Tween-80
[9] = dose: 200.0 mg/kg/injection, schedule: Q04DX003 (ip), vehicle: saline with Tween-80
[10] = dose: 25.0 mg/kg/injection, schedule: Q01DX009 (ip), vehicle: Klucel (hydroxypropylcellulose) (HPC)
[11] = dose: 50.0 mg/kg/injection, schedule: Q01DX009 (ip), vehicle: Klucel (hydroxypropylcellulose) (HPC)
[12] = dose: 100.0 mg/kg/injection, schedule: Q01DX009 (ip), vehicle: Klucel (hydroxypropylcellulose) (HPC)
[13] = dose: 100.0 mg/kg/injection, schedule: Q04DX003 (ip), vehicle: Klucel (hydroxypropylcellulose) (HPC)
[14] = dose: 200.0 mg/kg/injection, schedule: Q04DX003 (ip), vehicle: Klucel (hydroxypropylcellulose) (HPC)
[15] = dose: 400.0 mg/kg/injection, schedule: Q04DX003 (ip), vehicle: Klucel (hydroxypropylcellulose) (HPC)

In the case of `CCOC(=O)C1Cc2ccccc2OC1=O` (configuration not stated), the T/C (dose: 50.0 mg/kg/injection, schedule: Q01DX005 (ip), vehicle: saline with Tween-80) is reported as 105 % of control, the T/C (dose: 100.0 mg/kg/injection, schedule: Q01DX005 (ip), vehicle: saline with Tween-80) is reported as 100 % of control and the T/C (dose: 200.0 mg/kg/injection, schedule: Q01DX005 (ip), vehicle: saline with Tween-80) is reported as 91 % of control.

For `CCCCNC(C)(C)CO`, the T/C (dose: 3.12 mg/kg/injection, schedule: Q01DX009 (ip), vehicle: saline) was 100 % of control, the T/C (dose: 6.25 mg/kg/injection, schedule: Q01DX009 (ip), vehicle: saline) was 99 % of control and the T/C [1] was 99 % of control. The T/C (dose: 12.5 mg/kg/injection, schedule: Q04DX003 (ip), vehicle: saline) was 102 % of control, the T/C [2] was 99 % of control and the T/C (dose: 25.0 mg/kg/injection, schedule: Q04DX003 (ip), vehicle: saline) was 100 % of control. The T/C [3] was 86 % of control, the T/C (dose: 50.0 mg/kg/injection, schedule: Q04DX003 (ip), vehicle: saline) was 102 % of control and the T/C [4] was 103 % of control. The T/C [5] was 95 % of control and 100 % of control.

With `CCN(CC)Cc1c(O)ccc2c3c(c(=O)oc12)CCCC3` the T/C (dose: 1.0 mg/kg/injection, schedule: Q01DX005 (ip), vehicle: saline) was 112 % of control, the T/C (dose: 2.0 mg/kg/injection, schedule: Q01DX005 (ip), vehicle: saline) was 106 % of control and the T/C (dose: 4.0 mg/kg/injection, schedule: Q01DX005 (ip), vehicle: saline) was 112 % of control. The T/C (dose: 8.0 mg/kg/injection, schedule: Q01DX005 (ip), vehicle: saline) was 104 % of control, the T/C (dose: 16.0 mg/kg/injection, schedule: Q01DX005 (ip), vehicle: saline) was 98 % of control and the T/C (dose: 32.0 mg/kg/injection, schedule: Q01DX005 (ip), vehicle: saline) was 102 % of control. The T/C (dose: 64.0 mg/kg/injection, schedule: Q01DX005 (ip), vehicle: saline) was 96 % of control.

With `N#C[C@@H]1C2C=CC(CC2)[C@H]1C#N` the T/C (dose: 0.29 mg/kg/injection, schedule: Q04DX003 (ip), vehicle: saline) was 95 % of control, the T/C (dose: 0.44 mg/kg/injection, schedule: Q04DX003 (ip), vehicle: saline) was 120 % of control and the T/C (dose: 0.66 mg/kg/injection, schedule: Q04DX003 (ip), vehicle: saline) was 100 % of control. The T/C (dose: 1.0 mg/kg/injection, schedule: Q04DX003 (ip), vehicle: saline) was 115 % of control, the T/C (dose: 1.5 mg/kg/injection, schedule: Q04DX003 (ip), vehicle: saline) was 100 % of control and the T/C (dose: 5.0 mg/kg/injection, schedule: Q04DX003 (ip), vehicle: saline with Tween-80) was 100 % of control.

With `Oc1c(Cl)cc(Cl)cc1/C=N/c1nc(-c2ccc(Cl)cc2)cs1` the T/C (dose: 0.78 mg/kg/injection, schedule: Q01DX009 (ip), vehicle: saline with Tween-80) was 100 % of control, the T/C (dose: 1.56 mg/kg/injection, schedule: Q01DX009 (ip), vehicle: saline with Tween-80) was 96 % of control and the T/C (dose: 3.12 mg/kg/injection, schedule: Q01DX009 (ip), vehicle: saline with Tween-80) was 105 % of control.

`OCCN1CCN(CCCN2c3ccccc3Sc3cccnc32)CC1` was tested, and the T/C [1] was 104 % of control, the T/C (dose: 18.75 mg/kg/injection, schedule: Q04DX003 (ip), vehicle: saline) was 96 % of control and the T/C [2] was 108 % of control and 110 % of control. For the same compound, the T/C (dose: 37.5 mg/kg/injection, schedule: Q04DX003 (ip), vehicle: saline) was 107 % of control and the T/C [3] was 122 % of control.

For `COc1cc(C=NC(CO)C(=O)O)ccc1O.COc1cc(C=NC(CO)C(=O)O)ccc1O.[Fe]` (configuration not stated), the T/C [4] was 100 % of control, the T/C [5] was 100 % of control and the T/C (dose: 200.0 mg/kg/injection, schedule: Q01DX009 (ip), vehicle: saline) was 100 % of control. For the same compound, the T/C (dose: 200.0 mg/kg/injection, schedule: Q04DX003 (ip), vehicle: saline) was 95 % of control and the T/C (dose: 400.0 mg/kg/injection, schedule: Q04DX003 (ip), vehicle: saline) was 95 % of control.

For `CC([OH2+])CNCCN.CC([OH2+])CNCCN.[Cu+2].[O-][Cl+3]([O-])([O-])[O-]` (configuration not stated), the T/C [1] was 108 % of control, the T/C [2] was 115 % of control and the T/C [3] was 114 % of control.

In the case of `CCOC(=O)c1cnn(C(N)=S)c1N`, the T/C [6] is reported as 90 % of control, the T/C [7] is reported as 104 % of control and the T/C (dose: 66.0 mg/kg/injection, schedule: Q04DX003 (ip), vehicle: saline with Tween-80) is reported as 104 % of control. The T/C [8] was 90 % of control and 104 % of control, the T/C (dose: 150.0 mg/kg/injection, schedule: Q04DX003 (ip), vehicle: saline with Tween-80) was 90 % of control and the T/C [9] was 100 % of control.

`Nc1nc(N)c(N=Cc2ccccc2)c(=O)[nH]1` was tested, and the T/C (dose: 100.0 mg/kg/injection, schedule: Q01DX001 (ip), vehicle: saline with Tween-80) was 108 % of control, the T/C (dose: 200.0 mg/kg/injection, schedule: Q01DX001 (ip), vehicle: saline with Tween-80) was 88 % of control and the T/C (dose: 400.0 mg/kg/injection, schedule: Q01DX001 (ip), vehicle: saline with Tween-80) was 97 % of control.

In the case of `CC[C@H](C)c1occ2c(O)c(C(=O)O)c(=O)cc-2c1C`, the T/C (dose: 6.0 mg/kg/injection, schedule: Q01DX009 (ip), vehicle: Klucel (hydroxypropylcellulose) (HPC)) is reported as 100 % of control, the T/C (dose: 12.0 mg/kg/injection, schedule: Q01DX009 (ip), vehicle: Klucel (hydroxypropylcellulose) (HPC)) is reported as 118 % of control and the T/C [10] is reported as 118 % of control.

`CCOC(=O)c1cc(/C=C/c2ccccc2)[nH]c(=O)c1C#N` was tested, and the T/C [10] was 91 % of control, the T/C [11] was 91 % of control and the T/C [12] was 95 % of control. The T/C [13] was 95 % of control, the T/C (dose: 200.0 mg/kg/injection, schedule: Q01DX009 (ip), vehicle: Klucel (hydroxypropylcellulose) (HPC)) was 92 % of control and the T/C [14] was 104 % of control. The T/C [15] was 104 % of control.

`CCOc1ccc2nc(N)sc2c1` was tested, and the T/C [10] was 118 % of control, the T/C [11] was 109 % of control and the T/C (dose: 100.0 mg/kg/injection, schedule: Q01DX001 (ip), vehicle: Klucel (hydroxypropylcellulose) (HPC)) was 86 % of control. For the same compound, the T/C [12] was 104 % of control and 109 % of control, the T/C [13] was 104 % of control and the T/C (dose: 200.0 mg/kg/injection, schedule: Q01DX001 (ip), vehicle: Klucel (hydroxypropylcellulose) (HPC)) was 100 % of control. The T/C [14] was 95 % of control and the T/C [15] was 91 % of control.

For `O=C1C(NC(=O)C2CCCCC2)=C(N2CC2)C(=O)C(NC(=O)C2CCCCC2)=C1N1CC1`, the T/C [10] was 123 % of control, the T/C (dose: 50.0 mg/kg/injection, schedule: Q01DX010 (ip), vehicle: saline) was 118 % of control and the T/C [12] was 106 % of control. For the same compound, the T/C (dose: 200.0 mg/kg/injection, schedule: Q01DX010 (ip), vehicle: saline) was 150 % of control and 209 % of control and the T/C (dose: 400.0 mg/kg/injection, schedule: Q01DX010 (ip), vehicle: saline) was 86 % of control.

For `CCN(CC)c1ccc(NC(=O)NC(C)C)cc1`, the T/C [7] was 90 % of control, the T/C [8] was 90 % of control and the T/C [9] was 86 % of control.

With `N=C(N)N1CCNc2ccccc2C1` the T/C [8] was 99 % of control.

With `CCCNCc1c2c(O)c3c(O)c(C)c4c(c3c1O)C(=O)C(C)(O/C=C/C(OC)C(C)C(OC(C)=O)C(C)C(O)C(C)C(O)C(C)/C=C/C=C(/C)C(=O)N2)O4` (configuration not stated) the T/C [6] was 90 % of control and the T/C (dose: 100.0 mg/kg/injection, schedule: Q01DX009 (ip), vehicle: saline with Tween-80) was 100 % of control.

`Cc1cc(=O)[nH]c(N/N=C2/CCCCC2C)n1` (configuration not stated) was tested, and the T/C (dose: 8.0 mg/kg/injection, schedule: Q01DX009 (ip), vehicle: Klucel (hydroxypropylcellulose) (HPC)) was 107 % of control, the T/C (dose: 16.0 mg/kg/injection, schedule: Q01DX009 (ip), vehicle: Klucel (hydroxypropylcellulose) (HPC)) was 107 % of control and the T/C (dose: 33.0 mg/kg/injection, schedule: Q01DX009 (ip), vehicle: Klucel (hydroxypropylcellulose) (HPC)) was 100 % of control. The T/C [12] was 100 % of control, the T/C [13] was 109 % of control and the T/C [14] was 95 % of control.

For `C=CCN(CC=C)C(=O)CCN1CC1`, the T/C (dose: 1.25 mg/kg/injection, schedule: Q01DX009 (ip), vehicle: saline) was 95 % of control, the T/C (dose: 2.5 mg/kg/injection, schedule: Q01DX009 (ip), vehicle: saline) was 100 % of control and the T/C (dose: 5.0 mg/kg/injection, schedule: Q01DX009 (ip), vehicle: saline) was 112 % of control.

With `CCc1ccc(OS(=O)(=O)c2ccccc2[N+](=O)[O-])cc1` the T/C (dose: 100.0 mg/kg/injection, schedule: Q04DX003 (ip), vehicle: saline sonified) was 100 % of control, the T/C (dose: 200.0 mg/kg/injection, schedule: Q04DX003 (ip), vehicle: saline sonified) was 100 % of control and the T/C (dose: 400.0 mg/kg/injection, schedule: Q04DX003 (ip), vehicle: saline sonified) was 100 % of control.

Reference: PubChem BioAssay AID328 (DTP/NCI, 2004)
